Experimental findings from US7618989B2, “Tricyclic oxazolidone derivatives useful as PR modulators” (Wyeth, priority 2006, dated 2009) are described below.

The term IC50 denotes the point on the concentration scale where inhibition reaches its midpoint. For orientation: melting point means the temperature, or range, at which the solid turns liquid.

The subject of the first series is alkaline phosphatase activity in T47D cells. In words: Effects of progestins and antiprogestins on alkaline phosphatase activity in T47D cells. The series is classed as cell-based. As to conditions: Homo sapiens, antagonist mode, in the presence of 1 nM progesterone, 24 h incubation, read-out: T47D Alkaline Phosphatase Activity IC50 (nM) or % inhibition. The procedure:
(1) Effects of Progestins and Antiprogestins on Alkaline Phosphatase Activity in T47D Cells.
• PURPOSE: To identify progestins or antiprogestins by determining a compound's effect on alkaline phosphatase activity in T47D cells. A. Reagents:
Culture medium: • DMEM:F12 (1:1) (GIBCO, BRL) supplemented with 5% (v/v) charcoal stripped fetal bovine serum (not heat-inactivated), 100 U/mL penicillin, 100 μg/mL streptomycin, and 2 mM the GlutaMax™ reagent (GIBCO, BRL).
Alkaline phosphatase assay buffer: • I. 0.1M Tris-HCl, pH 9.8, containing 0.2% the Triton® X-100 reagent • II. 0.1M Tris-HCl, pH 9.8, containing 4 mM p-nitrophenyl phosphate (Sigma). B. Cell Culture and Treatment:
Frozen T47D cells were thawed in a 37° C. water bath and diluted to 280,000 cells/mL in culture medium. To each well in a 96-well plate (Falcon, Becton Dickinson Labware), 180 μL of diluted cell suspension was added.
Twenty μL of reference or test compounds diluted in the culture medium was then added to each well. When testing for progestin antagonist activity, reference antiprogestins or test compounds were added in the presence of 1 nM progesterone. The cells were incubated at 37° C. in a 5% CO2/humidified atmosphere for 24 h.
NOTE: For high throughput screening, one concentration of each compound was tested at 0.3 μg/mL. Based on an average molecular weight of 300 g/mol for the compounds in the library, the concentration was approximately 1 μM. Subsequently, active compounds were tested in dose response assays to determine EC50 and IC50. C. Alkaline Phosphatase Enzyme Assay:
At the end of treatment, the medium was removed from the plate. Fifty μL of assay buffer I was added to each well. […]
For reference and test compounds, a dose response curve was generated for dose (X-axis) vs. the rate of enzyme reaction (slope) (Y-axis). […] EC50 or IC50 values were calculated from the retransformed values. […]
Progesterone and trimegestone were reference progestins and RU486 was the reference antiprogestin. All reference compounds were run in full dose response curves and the EC50 and IC50 values were calculated.
With `CCC1(CC)COC(=O)N1c1nc2c(s1)CCc1cc(C#N)ccc1-2` [Example 5, 2-(4,4-Diethyl-2-oxo-1,3-oxazolidin-3-yl)-4,5-dihydronaphtho[1,2-d][1,3]thiazole-7-carbonitrile], the IC50 came to 5 nM. On the same count and under the same terms, the value for `CC1(C)COC(=O)N1c1nc2c(s1)CCc1cc(C#N)ccc1-2` [Example 6, 2-(4,4-Dimethyl-2-oxo-1,3-oxazolidin-3-yl)-4,5-dihydronaphtho[1,2-d][1,3]thiazole-7-carbonitrile] was 27.9 nM; that for `CC1(C)COC(=O)N1c1nc2c(ccc3cc(C#N)ccc32)s1` [Example 7, 2-(4,4-Dimethyl-2-oxo-1,3-oxazolidin-3-yl)naphtho[1,2-d][1,3]thiazole-7carbonitrile] was 100 nM.

Test system in the next series: not given
Test: not given
Details: not given
Compound `C[C@@H]1COC(=O)N1c1nc(-c2ccc(Br)cc2)cs1` [Example 1, (4R)-3-[4-(4-Bromophenyl)-1,3-thiazol-2-yl]-4-methyl-1,3-oxazolidin-2-one] gave a melting point of 197 to 199 °C. Same read-out and setting: the same measure for `CCC1(CC)COC(=O)N1c1nc(-c2ccc(C#N)cc2)cs1` [Example 2, 4-[2-(4,4-Diethyl-2-oxo-1,3-oxazolidin-3-yl)-1,3-thiazol-4-yl]benzonitrile]: 145 to 147 °C; for `CC1(C)COC(=O)N1c1nc(-c2cccc(C#N)c2)cs1` [Example 3, 3-[2-(4,4-dimethyl-2-oxo-1,3-oxazolidin-3-yl)-1,3-thiazol-4-yl]benzonitrile]: 181 to 183 °C.
